Test results reported in patent US20110002987A1, “Nicorandil Carriers with Enhanced Stability” (RIVOPHARM SA, priority 2008, published 2011).

Assay: Stability tests of nicorandil tablets in alu/alu blister with desiccant system
Format: physicochemical
Details: stored in combination with molecular sieve instead of silica gel desiccant, 6 months
Description: Two batches of Nicorandil tablets, 10 mg (batch 043/07) and 20 mg (batch 044/07) respectively, were prepared and packed according to the invention, in alu/alu blister together with a desiccant system.
Silica gel and molecular sieves were compared as desiccant systems and among molecular sieves, systems with different capacity of water absorption were considered.
043/07A: silica gel system
043/07B: 1 lozenge of desiccant plastic composition (Molecular Sieve 4A as provided by CSP technologies), containing molecular sieve 4 Å, a base polymer of polypropylene and an elastomer (moisture absorbed in mg: about 64)
043/07C: 5 lozenges of desiccant plastic composition (Molecular Sieve 4A as provided by CSP technologies), containing molecular sieve 4 Å, a base polymer of polypropylene and an elastomer (moisture absorbed in mg: about 320)
The blisters were placed on stability at the following conditions for 6 months:
25±2° C./60±5% relative humidity (RH)
Nicorandil is particularly sensitive to humidity. Two impurities (named rrt0.14 and rrt0.25) are generated when the product is exposed to moisture and therefore were monitored during stability.

- stability of nicorandil: more stable
- stability of nicorandil (listed as nicorandil): improved stability
Compound: O=C(NCCO[N+](=O)[O-])c1cccnc1 [Nicorandil]
